Structures are written as SMILES.

Chain of QPCT (Q16769 29-361): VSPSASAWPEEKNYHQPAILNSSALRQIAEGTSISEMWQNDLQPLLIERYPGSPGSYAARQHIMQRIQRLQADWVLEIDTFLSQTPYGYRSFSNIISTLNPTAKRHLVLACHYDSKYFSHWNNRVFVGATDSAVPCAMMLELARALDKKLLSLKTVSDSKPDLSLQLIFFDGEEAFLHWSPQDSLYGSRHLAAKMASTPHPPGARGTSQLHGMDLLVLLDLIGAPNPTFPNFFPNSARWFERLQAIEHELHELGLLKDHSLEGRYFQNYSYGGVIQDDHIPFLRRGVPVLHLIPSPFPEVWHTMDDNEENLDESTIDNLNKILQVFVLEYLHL

In one data set the target is QPCT (Homo sapiens (Human), UniProt Q16769). The data set is described as follows: Assay A: biochemical QPCT activity assay (MALDI-TOF MS). Conditions: compounds of the invention, Table 2; read-out: Inhibition of QPCT: IC50. As for the experimental part:
QPCT or QPCTL dependent conversion of N-terminal glutamine to pyroglutamate of CD47 was monitored via MALDI-TOF MS. Test compounds were dissolved in 100% DMSO and serially diluted into clear 1,536-well microtiter plates. Enzymatic reactions were set up in assay buffer containing 20 mM Tris pH 7.5, 0.1 mM TCEP, 0.01% BSA, and 0.001% Tween20. […] The plates were incubated for 10 min in a humidified incubator at 24° C. Subsequently, 2.5 μL of CD47 peptide substrate surrogate (^19[…]^33) was added to each well (final concentration: 10 μM for QPCTL/20 μM for QPCT). The plates were mixed for 30 sec at 1,000 rpm and subsequently incubated for 40 min in a humidified incubator at 24° C. […] The plates were sealed with an adhesive foil, mixed for 30 s at 1,000 rpm and stored at room temperature until preparation of the MALDI target plates. […] QPCT or QPCTL activity was monitored by calculating the ratio between product and internal standard signals followed by normalization to high (100% activity) and low (0% activity) controls. Determination of compound potencies was obtained by fitting the dose-response data to a four-parameter logistical equation.
As to `Cn1cnnc1C1(F)CCN(c2c(C#N)cccc2-c2cnc3nn(CC(F)F)cc3c2)CC1` [compound 60], the IC50 (commonly the point on the concentration scale where inhibition reaches its midpoint) is 1 nM.

The next data set has as its system SIRPα signalling induced by Raji cells. Description: Assay B: SIRPα signalling assay using Raji cells. It counts as cell-based, human. Conditions: Homo sapiens, compounds of the invention, Table 4, read-out: Inhibition of SIRα signalling induced by Raji cells: IC50. The procedure: Bioassay reagent 1 of the PathHunter Bioassay detection kit (DiscoverX 93-0001) was added to each well of the plate using a multichannel pipette followed by a 15 min incubation at room temperature. Afterwards bioassay reagent 2 was added followed by 60 min incubation at room temperature (incubation in the dark).
The analysis of the data was performed using the luminescence signal generated by beta-galactosidase in the PathHunter reporter cell line. The luminescence measurement was done using a Pherastar Multi-Mode Reader.
For the compound `Cn1cnnc1C1CCN(c2c(C#N)cccc2-c2cnc(F)c(OC3CCC3)c2)CC1` [Example 34], the IC50 was found to be 52 nM.
On the same count and under the same terms, to `Cn1cnnc1C1CCN(c2c(C#N)cccc2-c2cnc(F)c(OC(F)F)c2)CC1` [Example 37] belongs 325 nM.
Consider `Cn1cnnc1C1CCN(c2c(C#N)cccc2-c2cnc(F)c(Oc3ccccc3)c2)CC1` [Example 38], for which the IC50 was 372 nM.
Same read-out and setting: to `Cn1cnnc1C1CCN(c2c(C#N)cccc2-c2cnc3nn(C)c(C(F)(F)F)c3c2)CC1` [Example 41] belongs 88 nM; to `Cn1cnnc1C1(F)CCN(c2c(C#N)cccc2-c2cnc3nn(CC(F)(F)F)cc3c2)CC1` [Example 55], 38 nM; to `Cn1cnnc1C1(F)CCN(c2c(C#N)cccc2-c2cnc(=O)n(C)c2)CC1` [Example 58], 493 nM.
Same read-out and setting: the same measure for `Cn1cnnc1C1(C)CCN(c2c(C#N)cccc2-c2cccnc2)CC1` [Example 65]: 1040 nM; for `Cn1cnnc1C1CCN(c2c(C#N)cccc2-c2cncc(-c3ccccc3)c2)CC1` [compound 21, reference compound]: 1320 nM.
In the case of `Cn1cnnc1C1CCN(c2c(C#N)cccc2-c2cncc(OC(F)F)c2)CC1` [compound 23, reference compound], the IC50 is 1070 nM.
The same measure, in the same setting: the same measure for `Cn1cnnc1C1(F)CCN(c2c(C#N)cccc2-c2cnc3nn(CC(F)F)cc3c2)CC1` [compound 60]: 17 nM.
As for `Cn1cnnc1C1(F)CCN(c2c(C#N)cccc2-c2cnc3nc(C(C)(C)C)[nH]c3c2)CC1` [compound 69], the IC50 amounted to 11 nM.

The data set is the same for the next values; noted with them: Homo sapiens, prior art compounds, Table 5, read-out: Inhibition of SIRPα signalling induced by Raji cells: IC50.
As for `Cn1cnnc1C1CCN(S(=O)(=O)c2cccc(Nc3ccc(F)nc3)c2)CC1` [compound 21, reference compound], the IC50 is > 10000 nM.

For another data set, the system named is SIRPα signalling induced by A549 cells. Description: Assay B: SIRPα signalling assay using A549 cells. To be noted: Homo sapiens, compounds of the invention, Table 4, read-out: Inhibition of SIRα signalling induced by A549 cells: IC50. It counts as cell-based, human. The procedure:
Two cell types are independently used: the Raji cell line (lymphoblastlike human cell line derived from B lymphocytes from a Burkitt's lymphoma patient in 1963) and A549 cells (adenocarcinomic human alveolar basal epithelial cells).
Test compounds were dissolved in 100% DMSO and serially diluted into a white 384-well microtiter cell culture plate (PerkinElmer #60076780 in case of Raji assay; PDL-coated plates Greiner #781945 in case of A549 assay). 5000 Raji cells (ATCC #CC86) or 5000 A549 cells (ATCC #CCL-185) in Assay Complete Cell Plating reagent 30 (DiscoverX 93-0563R30B) were added per well. The assay plate was incubated for 48 h at 37° C., 95% humidity and 5% CO2. 15000 reporter cells (Jurkat PathHunter SIRPα V1, DiscoverX #93-1135C19) were added to each well, and the plate was incubated for 5 h at 37° C., 95% humidity and 5% CO2. Bioassay reagent 1 of the PathHunter Bioassay detection kit (DiscoverX 93-0001) was added to each well of the plate using a multichannel pipette followed by a 15 min incubation at room temperature. Afterwards bioassay reagent 2 was added followed by 60 min incubation at room temperature (incubation in the dark).
The analysis of the data was performed using the luminescence signal generated by beta-galactosidase in the PathHunter reporter cell line. The luminescence measurement was done using a Pherastar Multi-Mode Reader. Dose-response curves & IC50 data were calculated with 4-parameter sigmoidal dose response formula.
As to `Cn1cnnc1C1CCN(c2c(C#N)cccc2-c2ccc(F)nc2)CC1` [Example 1], the IC50 is 9 nM.
For `Cn1cnnc1C1CCN(c2c(C#N)cccc2-c2cnc(F)c(OC3CCC3)c2)CC1` [Example 34], the IC50 stood at 25 nM.
On to `Cn1cnnc1C1CCN(c2c(C#N)cccc2-c2cnc(F)c(OC(F)F)c2)CC1` [Example 37], for which the IC50 turned out to be 113 nM.
On the same count and under the same terms, the same measure for `Cn1cnnc1C1CCN(c2c(C#N)cccc2-c2cnc(F)c(Oc3ccccc3)c2)CC1` [Example 38]: 98 nM; for `Cn1cnnc1C1CCN(c2c(C#N)cccc2-c2cnc3nn(C)c(C(F)(F)F)c3c2)CC1` [Example 41]: 97 nM; for `Cn1cnnc1C1(F)CCN(c2c(C#N)cccc2-c2cnc3nn(CC(F)(F)F)cc3c2)CC1` [Example 55]: 44 nM.
With `Cn1cnnc1C1(F)CCN(c2c(C#N)cccc2-c2cnc(=O)n(C)c2)CC1` [Example 58], the IC50 stood at 249 nM.
In the case of `Cn1cnnc1C1CCN(c2c(C#N)cccc2-c2cncc(-c3ccccc3)c2)CC1` [compound 21, reference compound], the IC50 turned out to be 530 nM.
On the same count and under the same terms, the same measure for `Cn1cnnc1C1CCN(c2c(C#N)cccc2-c2cncc(OC(F)F)c2)CC1` [compound 23, reference compound]: 342 nM; for `Cn1cnnc1C1(F)CCN(c2c(C#N)cccc2-c2cnc3nn(CC(F)F)cc3c2)CC1` [compound 60]: 16 nM; for `Cn1cnnc1C1(F)CCN(c2c(C#N)cccc2-c2cnc3nc(C(C)(C)C)[nH]c3c2)CC1` [compound 69]: 10 nM.

The data set is the same for the next values; noted with them: Homo sapiens, prior art compounds, Table 5, read-out: Inhibition of SIRPα signalling induced by A549 cells: IC50.
As to `Cn1cnnc1C1CCN(S(=O)(=O)c2cccc(Nc3ccc(F)nc3)c2)CC1` [compound 21, reference compound], the IC50 is > 10000 nM.

System in the next data set: not listed separately
The data set is described as follows: Assay C: permeability in CACO-2 cells. To be noted: human, pH 7.2; Caco-2, apical to basolateral; compounds of the invention, Table 7. It counts as in vitro ADME. The procedure:
Compounds are dissolved in appropriate solvent (like DMSO, 1-20 mM stock solutions). […] The transport solution (TL) is applied to the apical or basolateral donor side for measuring A-B or B-A permeability (3 filter replicates), respectively. Samples are collected at the start and end of experiment from the donor and at various time intervals for up to 2 hours also from the receiver side for concentration measurement by HPLC-MS/MS or scintillation counting. Sampled receiver volumes are replaced with fresh receiver solution.
For orientation: Caco-2 monolayers are a common model of the intestinal barrier.
In the case of `Cn1cnnc1C1CCN(c2c(C#N)cccc2-c2ccc(F)nc2)CC1` [Example 1], the Papp A→B (usually how fast a substance crosses the layer from the apical side) at 2 h stood at 28 ×10⁻⁶ cm/s.
Still for that read-out and setting: the same measure for `Cn1cnnc1C1CCN(c2c(C#N)cccc2-c2cnc(F)c(OC3CCC3)c2)CC1` [Example 34]: 22 ×10⁻⁶ cm/s; for `Cn1cnnc1C1CCN(c2c(C#N)cccc2-c2cnc(F)c(OC(F)F)c2)CC1` [Example 37]: 23 ×10⁻⁶ cm/s.
The same measure, in the same setting: the same measure for `Cn1cnnc1C1CCN(c2c(C#N)cccc2-c2cnc(F)c(Oc3ccccc3)c2)CC1` [Example 38]: 20 ×10⁻⁶ cm/s; for `Cn1cnnc1C1CCN(c2c(C#N)cccc2-c2cnc3nn(C)c(C(F)(F)F)c3c2)CC1` [Example 41]: 2.9 ×10⁻⁶ cm/s.
The same measure, in the same setting: to `Cn1cnnc1C1(F)CCN(c2c(C#N)cccc2-c2cnc3nn(CC(F)(F)F)cc3c2)CC1` [Example 55] belongs 1.4 ×10⁻⁶ cm/s; to `Cn1cnnc1C1(F)CCN(c2c(C#N)cccc2-c2cnc(=O)n(C)c2)CC1` [Example 58], < 0.3 ×10⁻⁶ cm/s.
`Cn1cnnc1C1(C)CCN(c2c(C#N)cccc2-c2cccnc2)CC1` [Example 65] yielded a Papp A→B at 2 h of 9.8 ×10⁻⁶ cm/s.
The same measure, in the same setting: the same measure for `Cn1cnnc1C1CCN(c2c(C#N)cccc2-c2cncc(-c3ccccc3)c2)CC1` [compound 21, reference compound]: 33 ×10⁻⁶ cm/s; for `Cn1cnnc1C1CCN(c2c(C#N)cccc2-c2cncc(OC(F)F)c2)CC1` [compound 23, reference compound]: 10.1 ×10⁻⁶ cm/s.
`Cn1cnnc1C1(F)CCN(c2c(C#N)cccc2-c2cnc3nn(CC(F)F)cc3c2)CC1` [compound 60] yielded a Papp A→B of 0.5 ×10⁻⁶ cm/s.
On the same count and under the same terms, to `Cn1cnnc1C1(F)CCN(c2c(C#N)cccc2-c2cnc3nc(C(C)(C)C)[nH]c3c2)CC1` [compound 69] belongs 0.5 ×10⁻⁶ cm/s.

Still in this data set, the particulars now being: human, pH 7.2; Caco-2, apical to basolateral; prior art compounds, Table 8.
`Cn1cnnc1C1CCN(S(=O)(=O)c2cccc(Nc3ccc(F)nc3)c2)CC1` [compound 21, reference compound] returned a Papp A→B at 2 h of 0.7 ×10⁻⁶ cm/s.

Staying with this data set, now noted: human, pH 7.2; Caco-2; compounds of the invention, Table 7.
`Cn1cnnc1C1CCN(c2c(C#N)cccc2-c2cnc(F)c(OC3CCC3)c2)CC1` [Example 34]: the efflux ratio (in general, a quotient of directional permeabilities that is used to spot active efflux) at 2 h was found to be 3.3.
On the same count and under the same terms, the same measure for `Cn1cnnc1C1CCN(c2c(C#N)cccc2-c2cnc(F)c(OC(F)F)c2)CC1` [Example 37]: 2; for `Cn1cnnc1C1CCN(c2c(C#N)cccc2-c2cnc(F)c(Oc3ccccc3)c2)CC1` [Example 38]: 1.9.
Same read-out and setting: the same measure for `Cn1cnnc1C1(F)CCN(c2c(C#N)cccc2-c2cnc3nn(CC(F)(F)F)cc3c2)CC1` [Example 55]: 40; for `Cn1cnnc1C1(F)CCN(c2c(C#N)cccc2-c2cnc(=O)n(C)c2)CC1` [Example 58]: > 4.3; for `Cn1cnnc1C1(C)CCN(c2c(C#N)cccc2-c2cccnc2)CC1` [Example 65]: 4.9.
Same read-out and setting: to `Cn1cnnc1C1CCN(c2c(C#N)cccc2-c2cncc(-c3ccccc3)c2)CC1` [compound 21, reference compound] belongs 2.8.
Take `Cn1cnnc1C1CCN(c2c(C#N)cccc2-c2cncc(OC(F)F)c2)CC1` [compound 23, reference compound]: the efflux ratio at 2 h was 7.1.
Consider `Cn1cnnc1C1(F)CCN(c2c(C#N)cccc2-c2cnc3nn(CC(F)F)cc3c2)CC1` [compound 60], for which the efflux ratio is 100.
The same measure, in the same setting: to `Cn1cnnc1C1(F)CCN(c2c(C#N)cccc2-c2cnc3nc(C(C)(C)C)[nH]c3c2)CC1` [compound 69] belongs 56.9.
